Values after ≈ are worked out from the molar mass of the structure shown.
Test system: Mycobacterium tuberculosis
Assay: Antimycobacterial activity against human resistant Mycobacterium tuberculosis measured after six weeks
Format: functional

| Structure (SMILES) | MIC [µg/mL] |
| --- | --- |
| C=CCN1C(=O)/C(=N\NC(=O)c2ccncc2)c2ccccc21 | 2.7 to 3.5 (≈ 8.81 to 11.4 µM) |
| O=C(N/N=C1\C(=O)N(Cc2ccccc2)c2ccccc21)c1ccncc1 | 2.7 to 3.5 (≈ 7.58 to 9.82 µM) |
